# Laboratory results from article PMC12435690, “KYLO-0603, a novel liver-targeting, thyroid hormone receptor-β agonist for the inhibition of MASH progression” (PLOS One, 2025).
# Experiments:
# in vitro [1] = settings: CD-1, mouse, plasma
# Procedure: (§2) We evaluated the metabolic stability of Kylo-0603 in the plasma of CD-1 mice, Sprague–Dawley (SD) rats, beagle dogs, cynomolgus monkeys, and humans. The plasma from the five species was mixed with Kylo-0603 (2 μM) and incubated at 37°C in a thermostatic water tank. The plasma concentrations of Kylo-0603 were monitored via LC-MS/MS at 0, 10, 30, 60, and 120 min.
# [2] = 182-day long-term dosing toxicity study in Sprague-Dawley rats; assay type: in vivo
# Procedure: (§1) To evaluate the preclinical safety profile of Kylo-0603, a novel liver-targeted thyroid hormone receptor β (TRβ) agonist with therapeutic potential, systematic toxicological assessments were conducted in both non-human primates (cynomolgus monkeys) and rodents (Sprague-Dawley rats). […] The no-observed-adverse-effect level (NOAEL) was determined to be 1.5 mg/kg/day. Collectively, these independent toxicological investigations substantiate Kylo-0603’s favorable safety, providing rigorous preclinical support for clinical advancement.
# [3] = 28-day repeated-dose toxicity study in cynomolgus monkeys; assay type: in vivo
# Procedure: as §1
# in vitro [4] = settings: Sprague-Dawley, rat, plasma
# Procedure: as §2
# [5] = Metabolic stability in plasma (cynomolgus monkeys); settings: cynomolgus monkey
# Procedure: as §2
# [6] = test system: MASH mouse models (F2 ~ 3); assay: SHG/TPEF microscopy of liver fibrosis and steatosis in MASH mouse models; assay type: in vivo, C57BL/6J mice; settings: for SHG fibrosis percentage / percentage of steatosis: 8 weeks; for SHG fibrosis percentage: control 4.36%; for percentage of steatosis: control 21.66%
# Procedure: Scanning was conducted on a Genesis® machine, a stain-free TPE/SHG microscopic imaging device manufactured in-house by HistoIndex®, Singapore. The region of interest (ROI) is systematically partitioned into uniformly sized, termed “blocks,” each measuring of 200 μm × 200 μm. These blocks were sequentially imaged individually and in sequence in raster scan mode utilizing a 20x objective lens. Each block has a resolution of 512 × 512 pixels, or 0.4 μm per pixel. Software developed by HistoIndex and Chipmap for image analysis identifies the different lobular regions, the central vein, the confluent region, and the perisinus region. Fibrosis and steatosis in these regions were subsequently measured and quantified in the SHG and TPE images.
# As a fundamental component of clinical prognosis in MASH, a precise evaluation of hepatic fibrosis is very crucial. Artificial intelligence-assisted second harmonic generation/two-photon excitation fluorescence (SHG/TPEF) microscopy technique has been introduced because the existing scoring systems are insufficient for capturing the process of hepatic fibrosis regression. This offers a consistent and very precise way to evaluate the pathological characteristics of MASH, especially the serial measurement of collagen fibers and hepatic fibrosis. In this study, we employed second harmonic generation/two-photon excited fluorescence (SHG/TPEF) microscopy integrated with digital image analysis to evaluate liver tissue sections across a larger tissue area from MASH mouse models (F2–F3). This approach enabled systematic analysis of the effects of Kylo-0603 on arresting the progression of hepatic steatosis and fibrosis of liver tissue.
# Through quantitative analysis of SHG/TPEF imaging datasets, we conducted a detailed assessment of the specific impacts of varying Kylo-0603 dosages (0.1 mg/kg, 0.3 mg/kg, 1 mg/kg, 3 mg/kg, and 10 mg/kg) on fibrogenesis and steatosis in F2–F3 MASH mouse models. The key findings are systematically summarized as follows: […]
# [7] = Metabolic stability in plasma (beagle dogs); settings: dog
# Procedure: as §2
# [8] = Metabolic stability in plasma (humans); settings: human
# Procedure: as §2
# in vitro [9] = settings: cynomolgus monkey, plasma
# Procedure: as §2
# HFD-induced obese mice = assay: HFD-induced obese mice, oral once daily treatment; settings: for fat content reduction / increase in the percentage of lean mass / reduction in Chol level / reduction in LDL-C level: vs HFD control; for Ballooning score / Fibrosis Score / Lobular inflammation score / NAFLD activity score / Steatosis score: DIO mice, HFD
# Procedure: Experiments were performed on 112 (n = 16/group) male C57BL/6J mice (5 weeks). After 3 days of acclimatization, the animals were randomly divided according to body weight into a control group (Chow Diet) and a HFD group (HFD, 60% calories as fat, Cat# D12492, Research Diet, Jiangsu Xietong Pharmaceutical Bioengineering Co., Ltd.). The mice were fed with the corresponding diets for 16 weeks (with bedding shavings and a high-fat diet changed twice a week), during which the bedding shavings and high-fat diet (HFD) were refreshed twice weekly (see S1 Fig). Body weights were recorded on a weekly basis throughout this period. […] A separate cohort of mice, fed a standard chow diet, served as normal controls and received daily oral gavages of the vehicle. At the end of the experiment, the mice were fasted for 6 hours and then sacrificed. The animals were euthanized by CO2 inhalation and blood were collected along with liver and heart tissues. Collected blood samples were centrifuged to obtain the serum for the detection of cholesterol, triglyceride, and low-density lipoprotein cholesterol. The heart and liver tissues were weighed and photographed. The livers and hearts of the mice were rapidly removed and washed with cold saline. Half of the left lobe of liver was fixed in 4% neutral paraformaldehyde, and the remaining part of livers and hearts were snap-frozen and stored at −80°C for further analysis. The concentrations of serum lipids and liver enzymes from orbital or cardiac blood were determined by measuring triglycerides (TG), cholesterol (Chol), Low-density lipoprotein cholesterol (LDL-C), alanine transaminase (ALT), and aspartate transaminase (AST) levels using a Hitachi 7020 automated hematology laboratory and a Wako kit.
# The dewaxed tissue slides were incubated in the alcohol-free hematoxylin staining solution for a period of 3–5 minutes, followed by thorough rinsing with running tap water. The slides were then subjected to differentiated and bluing for several seconds, after which they underwent sequential dehydration through a series of ethanol solutions with increasing concentrations (50%, 70%, 85%, and 95%). They were then subjected to eosin staining for a period of 5–10 minutes. The slides were then dehydrated sequentially with 95%, 100%, and 100% ethanol before being cleared with xylene. Finally, the slides were sealed with neutral gum, dried, and imaged.
# The frozen sections were immersed in 60% isopropyl alcohol for 3–5 minutes, followed by immersion in Oil Red staining solution for 3–5 minutes. The samples were then washed with pure water. Following a wash with pure water, the nuclei were restained with hematoxylin, after which the sections were sealed with 50% glycerol, dried and photographed for imaging.
# The dewaxed slides were rinsed in running water, stained with Sirius Red for 8–10 minutes, washed slightly in anhydrous ethanol, dehydrated, made transparent by gradient ethanol and xylene, and finally sealed with neutral gum, dried and photographed for imaging.
smiles,measurement,setting,value
CC(=O)N[C@H]1[C@H](OCCCCCCNC(=O)CCOCC(COCCC(=O)NCCCCCCO[C@@H]2O[C@H](CO)[C@H](O)[C@H](O)[C@H]2NC(C)=O)(COCCC(=O)NCCCCCCO[C@@H]2O[C@H](CO)[C@H](O)[C@H](O)[C@H]2NC(C)=O)NC(=O)CCCCCNC(=O)COc2cc(C)c(Cc3ccc(O)c(C(C)C)c3)c(C)c2)O[C@H](CO)[C@H](O)[C@@H]1O [Kylo-0603],half-life at 2 μM,in vitro [1],> 373 min
same,pathological changes,"[2]; 182 days, maximum dose 1.5 mg/kg/day, 8-week recovery",only mild Kylo-0603-related pathological changes
same,perturbations of the hypothalamic-pituitary-thyroid (HPT) axis,[2]; Sprague-Dawley rats,no perturbations
same,NOAEL at 182 day,"[2]; Sprague-Dawley, rat, in vivo, 1.5 mg/kg/day, 182-day study, SD rats, read-out: no-observed-adverse-effect level (NOAEL)",1.5 mg/kg/day
same,perturbations of the hypothalamic-pituitary-thyroid (HPT) axis,[3]; cynomolgus monkeys,no perturbations
same,macroscopic lesions or histopathological changes,"[3]; oral 0.5, 1 and 5 mg/kg per day, 28 days, 56-day recovery",no macroscopic lesions or histopathological changes
same,half-life at 2 μM,in vitro [4],> 373 min
same,plasma stability,[5],stable
same,SHG fibrosis percentage,[6]; 0.1 mg/kg,2.92%
same,percentage of steatosis,[6]; 0.1 mg/kg,5.07%
same,SHG fibrosis percentage,[6]; 0.3 mg/kg,2.12%
same,percentage of steatosis,[6]; 0.3 mg/kg,4.39%
same,SHG fibrosis percentage,[6]; 1 mg/kg,2.16%
same,percentage of steatosis,[6]; 1 mg/kg,4.19%
same,SHG fibrosis percentage,[6]; 3 mg/kg,2.03%
same,percentage of steatosis,[6]; 3 mg/kg,2.22%
same,reduction of steatosis vs control group,[6]; 10 mg/kg,90%
same,SHG fibrosis percentage,[6]; 10 mg/kg,1.86%
same,plasma stability,[7],unstable
same,plasma stability,[8],stable
same,half-life at 2 μM,in vitro [9],> 373 min
same,body weight reduction vs HFD control group,"HFD-induced obese mice; 0.1 mg/kg PO once daily, 10 weeks",0.8%
same,fat content reduction,"HFD-induced obese mice; 0.1 mg/kg, 8 weeks",8.96%
same,increase in the percentage of lean mass,"HFD-induced obese mice; 0.1 mg/kg, 8 weeks",5.32%
same,reduction in Chol level,"HFD-induced obese mice; 0.1 mg/kg, 10 weeks",30.6%
same,reduction in LDL-C level,"HFD-induced obese mice; 0.1 mg/kg, 10 weeks",58.0%
same,body weight reduction vs HFD control group,"HFD-induced obese mice; 0.3 mg/kg PO once daily, 10 weeks",4.8%
same,fat content reduction,"HFD-induced obese mice; 0.3 mg/kg, 8 weeks",9.16%
same,increase in the percentage of lean mass,"HFD-induced obese mice; 0.3 mg/kg, 8 weeks",10.95%
same,reduction in Chol level,"HFD-induced obese mice; 0.3 mg/kg, 10 weeks",35.9%
same,reduction in LDL-C level,"HFD-induced obese mice; 0.3 mg/kg, 10 weeks",72.7%
same,body weight reduction vs HFD control group,"HFD-induced obese mice; 1 mg/kg PO once daily, 10 weeks",3.8%
same,fat content reduction,"HFD-induced obese mice; 1 mg/kg, 8 weeks",14.07%
same,increase in the percentage of lean mass,"HFD-induced obese mice; 1 mg/kg, 8 weeks",13.52%
same,reduction in Chol level,"HFD-induced obese mice; 1 mg/kg, 10 weeks",47.9%
same,reduction in LDL-C level,"HFD-induced obese mice; 1 mg/kg, 10 weeks",81.8%
same,average reduction of triglyceride content in liver homogenates,HFD-induced obese mice; 3 mg/kg,up to 36.4%
same,body weight reduction vs HFD control group,"HFD-induced obese mice; 3 mg/kg PO once daily, 10 weeks",13.1%
same,reduction in Chol level,"HFD-induced obese mice; 3 mg/kg, 2 weeks",52.0%
same,reduction in LDL-C level,"HFD-induced obese mice; 3 mg/kg, 2 weeks",84.0%
same,fat content reduction,"HFD-induced obese mice; 3 mg/kg, 8 weeks",26.15%
same,increase in the percentage of lean mass,"HFD-induced obese mice; 3 mg/kg, 8 weeks",21.94%
same,reduction in Chol level,"HFD-induced obese mice; 3 mg/kg, 10 weeks",53.9%
same,reduction in LDL-C level,"HFD-induced obese mice; 3 mg/kg, 10 weeks",79.7%
same,body weight reduction vs HFD control group,"HFD-induced obese mice; 10 mg/kg PO once daily, 10 weeks",15.8%
same,reduction in Chol level,"HFD-induced obese mice; 10 mg/kg, 2 weeks",64.5%
same,reduction in LDL-C level,"HFD-induced obese mice; 10 mg/kg, 2 weeks",85.8%
same,fat content reduction,"HFD-induced obese mice; 10 mg/kg, 8 weeks",44.35%
same,increase in the percentage of lean mass,"HFD-induced obese mice; 10 mg/kg, 8 weeks",37.91%
same,reduction in Chol level,"HFD-induced obese mice; 10 mg/kg, 10 weeks",69.2%
same,reduction in LDL-C level,"HFD-induced obese mice; 10 mg/kg, 10 weeks",88.2%
same,body length,"HFD-induced obese mice; 0.1-10 mg/kg, 8 weeks",not affected
same,bone density,"HFD-induced obese mice; 0.1-10 mg/kg, 8 weeks",not affected
same,cholesterol content in liver homogenates,HFD-induced obese mice; 2 and 10 weeks,did not exert a notable influence
same,Ballooning score,"HFD-induced obese mice; 0.1 mg/kg, 8 weeks",1.6 ± 0.5
same,Fibrosis Score,"HFD-induced obese mice; 0.1 mg/kg, 8 weeks",0.6 ± 0.5
same,Lobular inflammation score,"HFD-induced obese mice; 0.1 mg/kg, 8 weeks",1.0 ± 0.0
same,NAFLD activity score,"HFD-induced obese mice; 0.1 mg/kg, 8 weeks",5.0 ± 0.9
same,Steatosis score,"HFD-induced obese mice; 0.1 mg/kg, 8 weeks",2.4 ± 1.1
same,Ballooning score,"HFD-induced obese mice; 0.3 mg/kg, 8 weeks",1.4 ± 0.5
same,Fibrosis Score,"HFD-induced obese mice; 0.3 mg/kg, 8 weeks",0.4 ± 0.5
same,Lobular inflammation score,"HFD-induced obese mice; 0.3 mg/kg, 8 weeks",1.3 ± 0.5
same,NAFLD activity score,"HFD-induced obese mice; 0.3 mg/kg, 8 weeks",4.6 ± 1.2
same,Steatosis score,"HFD-induced obese mice; 0.3 mg/kg, 8 weeks",2.0 ± 1.4
same,Ballooning score,"HFD-induced obese mice; 1 mg/kg, 8 weeks",1.8 ± 0.5
same,Fibrosis Score,"HFD-induced obese mice; 1 mg/kg, 8 weeks",0.4 ± 0.5
same,Lobular inflammation score,"HFD-induced obese mice; 1 mg/kg, 8 weeks",1.1 ± 0.4
same,NAFLD activity score,"HFD-induced obese mice; 1 mg/kg, 8 weeks",4.4 ± 1.1
same,Steatosis score,"HFD-induced obese mice; 1 mg/kg, 8 weeks",1.5 ± 0.8
same,Ballooning score,"HFD-induced obese mice; 3 mg/kg, 8 weeks",1.1 ± 1.0
same,Fibrosis Score,"HFD-induced obese mice; 3 mg/kg, 8 weeks",0.4 ± 0.5
same,Lobular inflammation score,"HFD-induced obese mice; 3 mg/kg, 8 weeks",1.1 ± 0.4
same,NAFLD activity score,"HFD-induced obese mice; 3 mg/kg, 8 weeks",3.4 ± 2.1
same,Steatosis score,"HFD-induced obese mice; 3 mg/kg, 8 weeks",1.1 ± 1.0
same,Ballooning score,"HFD-induced obese mice; 10 mg/kg, 8 weeks",1.0 ± 0.9
same,Fibrosis Score,"HFD-induced obese mice; 10 mg/kg, 8 weeks",0.3 ± 0.5
same,Lobular inflammation score,"HFD-induced obese mice; 10 mg/kg, 8 weeks",1.0 ± 0.0
same,NAFLD activity score,"HFD-induced obese mice; 10 mg/kg, 8 weeks",3.2 ± 1.3
same,Steatosis score,"HFD-induced obese mice; 10 mg/kg, 8 weeks",1.2 ± 0.8
same,liver weight,"HFD-induced obese mice; all dose groups (0.1-10 mg/kg), 10 weeks",significantly decreased
same,effect on heart weight,"HFD-induced obese mice; various doses (0.1-10 mg/kg), 10 weeks",not significant
